29 compounds from patent US11078170B2 (Assembly Biosciences, Inc., priority 2017, dated 2021) can be followed below.

This test relates to HBV viral production from HepAD38 cells. Description: Activity of test compounds on viral production from HepAD38 cells (viral load by qPCR of HBV core sequence in supernatant). The following applies: Hepatitis B virus, 120 h, 5 days incubation, HBV DNA in supernatant by qPCR, top concentration 10 μM, read-out: Viral Load EC50 Activity range. It is filed as cell-based. In short, it runs like this:
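HepAD38 cells, 50,000/well in tetracycline-free 2% FBS medium, treated 5 days at 37° C. with compound from 10 μM top concentration. HBV DNA in supernatant quantified by TaqMan qPCR of core sequence against DNA standards, relative to DMSO wells; CellTiter-Glo viability read in parallel. EC50/CC50 from four-parameter logistic fit.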

Turning to `CN1[C@@H](C(=O)Nc2ccc(F)c(Cl)c2)C[C@@H](c2ccc(-c3cn[nH]c3)s2)NS1(=O)=O` [HBV-CSU-244-ISO-II], the concentration giving a half-maximal response (EC50) is below 1 µM.

Consider `Cc1c(-c2ccc([C@H]3C[C@@H](C(=O)Nc4ccc(F)c(Cl)c4)N(C)S(=O)(=O)N3)s2)cnn1C` [HBV-CSU-312-ISO-I, Cis-N-(3-chloro-4-fluorophenyl)-5-(5-(1,5-dimethyl-1H-pyrazol-4-yl)thiophen-2-yl)-2-methyl-1,2,6-thiadiazinane-3-carboxamide 1,1-dioxide], for which the EC50 was below 1 µM.

In the case of `CN1[C@H](C(=O)Nc2ccc(F)c(Cl)c2)C[C@H](c2ncc(Br)s2)NS1(=O)=O` [HBV-CSU-122-ISO-I, (3S,5R)-5-(5-bromothiazol-2-yl)-N-(3-chloro-4-fluorophenyl)-2-methyl-1,2,6-thiadiazinane-3-carboxamide 1,1-dioxide], the EC50 is below 1 µM.

With `CN1C(C(=O)Nc2ccc(F)c(Cl)c2)CC(c2nc3ccccc3s2)NS1(=O)=O` (racemic) [HBV-CSU-364, Cis-5-(benzo[d]thiazol-2-yl)-N-(3-chloro-4-fluorophenyl)-2-methyl-1,2,6-thiadiazinane-3-carboxamide 1,1-dioxide], the EC50 is below 1 µM.

`CN1[C@H](C(=O)Nc2ccc(F)c(Cl)c2)C[C@H](c2cc(-c3ccnn3C)cs2)NS1(=O)=O` (relative stereo) [HBV-CSU-289-ISO-I, Cis-N-(3-chloro-4-fluorophenyl)-2-methyl-5-(4-(1-methyl-1H-pyrazol-5-yl)thiophen-2-yl)-1,2,6-thiadiazinane-3-carboxamide 1,1-dioxide]: the EC50 was below 1 µM.

Turning to `[2H]C1[C@]([2H])(C(=O)Nc2ccc(F)c(Cl)c2)N(C)S(=O)(=O)N[C@]1([2H])c1ccc(Br)s1` (stereo in doubt) [HBV-CSU-371-ISO-II, Cis-5-(5-Bromothiophen-2-yl)-N-(3-chloro-4-fluorophenyl)-2-methyl-1,2,6-thiadiazinane-3,4,5-d3-3-carboxamide 1,1-dioxide], the 50% effective concentration (EC50) lay in the range of 1 to 5 µM.

Take `COc1ccc(-c2csc([C@H]3C[C@@H](C(=O)Nc4ccc(F)c(Cl)c4)N(C)S(=O)(=O)N3)c2)cc1` [HBV-CSU-241-ISO-I]: the EC50 was below 1 µM.

Take `CN1C(C(=O)Nc2ccc(F)c(Cl)c2)CC(c2ncc(-c3cn(C)cn3)s2)NS1(=O)=O` (racemic) [HBV-CSU-276, Cis-N-(3-Chloro-4-fluorophenyl)-2-methyl-5-(5-(1-methyl-1H-imidazol-4-yl)thiazol-2-yl)-1,2,6-thiadiazinane-3-carboxamide 1,1-dioxide]: the 50% effective concentration (EC50) was below 1 µM.

Take `Cc1ncc(C2CC(C(=O)Nc3ccc(F)c(Cl)c3)N(C)S(=O)(=O)N2)s1` (racemic) [HBV-CSU-224, Cis-N-(3-Chloro-4-fluorophenyl)-2-methyl-5-(2-methylthiazol-5-yl)-1,2,6-thiadiazinane-3-carboxamide 1,1-dioxide]: the 50% effective concentration (EC50) is below 1 µM.

For `COc1ccc(-c2csc(C3CC(C(=O)Nc4ccc(F)c(Cl)c4)N(C)S(=O)(=O)N3)c2)cc1` (centres unmarked) [HBV-CSU-241], the EC50 is below 1 µM.

`Cc1nn(C)cc1-c1ccc([C@@H]2C[C@H](C(=O)Nc3ccc(F)c(Cl)c3)N(C)S(=O)(=O)N2)s1` [HBV-CSU-313-ISO-II, Cis-N-(3-chloro-4-fluorophenyl)-5-(5-(1,3-dimethyl-1H-pyrazol-4-yl)thiophen-2-yl)-2-methyl-1,2,6-thiadiazinane-3-carboxamide 1,1-dioxide]: the EC50 is 1 to 5 µM.

With `[2H]C([2H])([2H])N1[C@@H](C(=O)Nc2ccc(F)c(Cl)c2)C[C@@H](c2ncc(-c3cn(C([2H])([2H])[2H])cn3)s2)NS1(=O)=O` (relative stereo) [HBV-CSU-337-ISO-II, Cis-N-(3-Chloro-4-fluorophenyl)-2-(methyl-d3)-5-(5-(1-(methyl-d3)-1H-imidazol-4-yl)thiazol-2-yl)-1,2,6-thiadiazinane-3-carboxamide 1,1-dioxide], the half-maximal effective concentration (EC50) was 1 to 5 µM.

As for `CN1[C@@H](C(=O)Nc2ccc(F)c(Cl)c2)C[C@@H](c2ncc(-c3ccc(NS(C)(=O)=O)cc3)s2)NS1(=O)=O` (relative stereo) [HBV-CSU-179, Cis-N-(3-Chloro-4-fluorophenyl)-2-methyl-5-(5-(4-(methylsulfonamido)phenyl)thiazol-2-yl)-1,2,6-thiadiazinane-3-carboxamide 1,1-dioxide], the half-maximal effective concentration (EC50) is below 1 µM.

Regarding `CCOCCN1[C@@H](C(=O)Nc2ccc(F)c(Cl)c2)C[C@@H](c2nccs2)NS1(=O)=O` [HBV-CSU-142-ISO-I, Cis-N-(3-Chloro-4-fluorophenyl)-2-(2-ethoxyethyl)-5-(thiazol-2-yl)-1,2,6-thiadiazinane-3-carboxamide 1,1-dioxide], the concentration for a half-maximal effect (EC50) was 1 to 5 µM.

In the case of `O=C(Nc1ccc(F)c(Cl)c1)C1CC(c2nccs2)NS(=O)(=O)N1CC1CCCO1` (racemic) [HBV-CSU-079-Rac-A, Cis-N-(3-Chloro-4-fluorophenyl)-2-((tetrahydrofuran-2-yl)methyl)-5-(thiazol-2-yl)-1,2,6-thiadiazinane-3-carboxamide 1,1-dioxide], the concentration giving a half-maximal response (EC50) was below 1 µM.

As for `CN1[C@H](C(=O)Nc2ccc(F)c(Cl)c2)C[C@H](c2ccc(-c3ccc(NS(C)(=O)=O)cc3)s2)NS1(=O)=O` [HBV-CSU-163-ISO-I, Cis-N-(3-chloro-4-fluorophenyl)-2-methyl-5-(5-(4-(methylsulfonamido)phenyl)thiophen-2-yl)-1,2,6-thiadiazinane-3-carboxamide 1,1-dioxide], the EC50 is below 1 µM.

Turning to `CN1C(C(=O)Nc2ccc(F)c(Cl)c2)CC(c2ccc(C(F)(F)F)s2)NS1(=O)=O` (racemic) [HBV-CSU-219, Cis-N-(3-Chloro-4-fluorophenyl)-2-methyl-5-(5-(trifluoromethyl)thiophen-2-yl)-1,2,6-thiadiazinane-3-carboxamide 1,1-dioxide], the EC50 is below 1 µM.

Take `CC(C)OCCN1C(C(=O)Nc2ccc(F)c(Cl)c2)CC(c2nccs2)NS1(=O)=O` (stereo not drawn) [HBV-CSU-143, Cis-N-(3-Chloro-4-fluorophenyl)-2-(2-isopropoxyethyl)-5-(thiazol-2-yl)-1,2,6-thiadiazinane-3-carboxamide 1,1-dioxide]: the EC50 is below 1 µM.

Regarding `CN1[C@@H](C(=O)Nc2ccc(F)c(Cl)c2)C[C@@H](c2ccc(-c3ccnn3C)s2)NS1(=O)=O` [HBV-CSU-271-ISO-II, Cis-N-(3-chloro-4-fluorophenyl)-2-methyl-5-(5-(1-methyl-1H-pyrazol-5-yl)thiophen-2-yl)-1,2,6-thiadiazinane-3-carboxamide 1,1-dioxide], the EC50 was in the range of 1 to 5 µM.

In the case of `CN1C(C(=O)Nc2ccc(F)c(Cl)c2)CC(c2cc(-c3ccnn3C)cs2)NS1(=O)=O` (racemic) [HBV-CSU-289, Cis-N-(3-chloro-4-fluorophenyl)-2-methyl-5-(4-(1-methyl-1H-pyrazol-5-yl)thiophen-2-yl)-1,2,6-thiadiazinane-3-carboxamide 1,1-dioxide], the concentration giving a half-maximal response (EC50) was below 1 µM.

For `CN1[C@H](C(=O)Nc2ccc(F)c(Cl)c2)C[C@H](c2ccc(-c3ccn(C)n3)s2)NS1(=O)=O` [HBV-CSU-270-ISO-I, Cis-N-(3-Chloro-4-fluorophenyl)-2-methyl-5-(5-(1-methyl-1H-pyrazol-3-yl)thiophen-2-yl)-1,2,6-thiadiazinane-3-carboxamide 1,1-dioxide], the EC50 was below 1 µM.

On to `CN(C)CCOc1ccc(C2CC(C(=O)Nc3ccc(F)c(Cl)c3)N(C)S(=O)(=O)N2)s1` (racemic) [HBV-CSU-188, Cis-N-(3-chloro-4-fluorophenyl)-5-(5-(2-(dimethylamino)ethoxy)thiophen-2-yl)-2-methyl-1,2,6-thiadiazinane-3-carboxamide 1,1-dioxide], for which the EC50 is below 1 µM.

With `CN1C(C(=O)Nc2ccc(F)c(Cl)c2)CC(c2ccc(F)cn2)NS1(=O)=O` (stereo not drawn) [HBV-CSU-032, Cis-N-(3-Chloro-4-fluorophenyl)-5-(5-fluoropyridin-2-yl)-2-methyl-1,2,6-thiadiazinane-3-carboxamide 1,1-dioxide], the EC50 is below 1 µM.

Turning to `Cc1csc(C2CC(C(=O)Nc3ccc(F)c(Cl)c3)N(C)S(=O)(=O)N2)c1` (racemic) [HBV-CSU-147, Cis-N-(3-chloro-4-fluorophenyl)-2-methyl-5-(4-methylthiophen-2-yl)-1,2,6-thiadiazinane-3-carboxamide 1,1-dioxide], the 50% effective concentration (EC50) is below 1 µM.

Consider `CN1C(C(=O)Nc2ccc(F)c(Cl)c2)CC(c2ccc(-c3ccc(C(F)(F)F)nc3)s2)NS1(=O)=O` (racemic) [HBV-CSU-158, Cis-N-(3-chloro-4-fluorophenyl)-2-methyl-5-(5-(6-(trifluoromethyl)pyridin-3-yl)thiophen-2-yl)-1,2,6-thiadiazinane-3-carboxamide 1,1-dioxide], for which the EC50 is 1 to 5 µM.

On to `CN1C(C(=O)Nc2cccc(C(F)(F)F)c2)CC(c2cccs2)NS1(=O)=O` (stereo not drawn) [HBV-CSU-012, Cis-2-Methyl-5-(thiophen-2-yl)-N-(3-(trifluoromethyl)phenyl)-1,2,6-thiadiazinane-3-carboxamide 1,1-dioxide], for which the concentration giving a half-maximal response (EC50) lay within 1 to 5 µM.

Regarding `CN1[C@@H](C(=O)Nc2ccc(F)c(Cl)c2)C[C@@H](c2cc(Cc3ccccc3)cs2)NS1(=O)=O` [HBV-CSU-149-ISO-II, Cis-(4-benzylthiophen-2-yl)-N-(3-chloro-4-fluorophenyl)-2-methyl-1,2,6-thiadiazinane-3-carboxamide 1,1-dioxide], the 50% effective concentration (EC50) fell in the range of 1 to 5 µM.

`[2H]C1C([2H])(c2ccc(-c3cn(C([2H])([2H])[2H])cn3)s2)NS(=O)(=O)N(C([2H])([2H])[2H])C1([2H])C(=O)Nc1ccc(F)c(Cl)c1` (stereo not drawn) [HBV-CSU-378, Cis-N-(3-chloro-4-fluorophenyl)-2-(methyl-d3)-5-(5-(1-(methyl-d3)-1H-imidazol-4-yl)thiophen-2-yl)-1,2,6-thiadiazinane-3,4,5-d3-3-carboxamide 1,1-dioxide]: the EC50 was below 1 µM.

Regarding `CN1[C@H](C(=O)Nc2ccc(F)c(Cl)c2)C[C@H](c2ccc(-c3cncs3)s2)NS1(=O)=O` [HBV-CSU-268-ISO-I, Cis-N-(3-Chloro-4-fluorophenyl)-2-methyl-5-(5-(thiazol-5-yl)thiophen-2-yl)-1,2,6-thiadiazinane-3-carboxamide 1,1-dioxide], the 50% effective concentration (EC50) is below 1 µM.

The term EC50 denotes the concentration needed to bring the measured effect to its halfway point.
